The values that follow come from patent US11858925B2, “GAS41 inhibitors and methods of use thereof” (The Regents of the University of Michigan, priority 2020, dated 2024).

Read-outs that look alike come from different tables or passages of the source.

Assay [1] concerns the target T1, His6-tagged full-length GAS41 (Homo sapiens, UniProt O95619).
T1 construct: using His6-tagged full-length GAS41 and biotinylated-, di-crotonylated-H3 peptide
The assay is described as follows: AlphaScreen competition assay with full-length GAS41 and biotin-H3K23crK27cr. Format: binding. As for the experimental part:
An AlphaScreen competition assay was also developed using His6-tagged full-length GAS41 and biotinylated-, di-crotonylated-H3 peptide (biotin-H3K23crK27cr). For full-length protein competition experiments, 100 nM MOCR-his6-Gas41 protein was incubated with 100× competitor in 50 mM HEPES pH 7.5, 100 mM NaCl, 1 mM TCEP, 0.05% BSA, 0.01% Tween-20 for 1 hour at 1% DMSO in a 96-well ½-Area AlphaPlate. H3K23crK27cr-biotin was added to a final concentration of 25 nM and incubated for 1 hour. Nickel Chelate Acceptor AlphaScreen beads were added to a final concentration of 10 μg/mL and incubated for 1 hour. Streptavidin Donor AlphaScreen beads were added to a final concentration of 10 μg/mL and incubated for 2 hours. Alpha signal was measured on a Pherastar plate reader.

The subject of assay [2] is H1933 cells. Description: Growth inhibition of H1933 cells. Format: cell-based. Conditions: 336 h, day 14. As for the experimental part: (§1) To investigate cellular activity of GAS41 inhibitors, H1299 cells were treated with monomeric Compound 88 and dimeric Compound 221 for 4 days. […] To determine whether growth inhibition is dependent on presence of GAS41 we developed A549 GAS41 knocked-out cells using the CRISPR/CAS9 system. We found GAS41-KO were viable but grew more slowly compare with parental A549 cells and had reduced growth by ˜70% at day 14 (FIG. 4B). […] Next, we evaluated the effect of Compound 221 on growth of two NSCLC cell lines H1299 and H1933 with GAS41 amplification. […] Such effect correlates closely with activity of Compound 221 in NanoBit assay (FIG. 3). To further validate on-target activity of Compound 221, we tested expression of GAS41 target genes in H1299 (Hsu 2018). […] Altogether, dimeric inhibitor Compound 221 reduces binding of GAS41 to acetylated H3.3 in cells and induces on-target growth inhibition in NSCLCs lines.

Assay [3] deals with A549 GAS41-KO cells. The assay is described as follows: Growth of A549 GAS41 knocked-out cells. Format: cell-based. On the procedure:
as §1

Assay [4] concerns A549 cells. The assay is described as follows: Growth inhibition of A549 cells. Format: cell-based. As to conditions: Homo sapiens, 12 μM concentration. On the procedure: as §1
The target of assay [5] is T2, GAS41-WT interaction with H3.3 (Homo sapiens, UniProt O95619).
T2 construct: expressed in transfected cells; host or cells: HEK293T
The assay is described as follows: NanoBiT assay, LgBiT-GAS41-WT and SmBiT-H3.3 in HEK293T cells. Format: cell-based. Conditions: 24 h treatment, 293T cells, estimated, read-out: IC50, inhibition of the luminescence signal. As for the experimental part: A NanoBiT assay (Promega Corporation, Madison, WI) was developed to detect inhibition of protein-protein interaction in HEK293T cells by compounds. GAS41-WT and GAS41-W93A mutant were cloned into pBiT1.1-C[TK/LgBiT] vector. SmBiT-H3.3 was purchased from Promega. HEK293T cells (4×10E5) were plated into 6-well plates (DMEM with 10% FBS) and incubated for 5 h. The LgBiT-GAS41 and SmBiT-H3.3 plasmids were co-transfected using FuGENE HD for 42 h. 5×10^4 cells were transferred into 96-well white plates (DMEM with 10% FBS and 1% Penicillin and Streptomycin) and treated with compounds for 24 h. After the Nano-Glo Live Cell Reagent was added to each well, the luminescence was measured immediately using PHERAstar FS instrument.
Introduction of a point mutation W93A in LgBit GAS41 abolishing histone recognition (Hsu 2018) largely diminished luminescence signal and validates the NanoBit assay.

Assay [6] relates to H1299 cells. The assay is described as follows: Growth inhibition of H1299 cells. Format: cell-based. As to conditions: for GI50: Homo sapiens. On the procedure:
as §1

The target in assay [7] is T3, 15N-labeled GAS41 YEATS domain (Homo sapiens, UniProt O95619).
T3 construct: GAS41 YEATS domain were also compared by NMR
The assay is described as follows: 1H-15N HSQC NMR binding to 15N-labeled GAS41 YEATS domain. Conditions: 60 μM 15N-labeled GAS41 YEATS; 60 μM Compound 85 or 30 μM Compound 223. As for the experimental part: FIGS. 2A-2C show data for activities of compounds disclosed herein. A) Results of a dimerization assay to determine bivalent inhibitor-induced dimerization of GAS41 YEATS domain, as described in Example 6. B) ^1H-^15N HSQC spectrum of 60 μM ^15N-labeled GAS41 YEATS domain (black) and in presence of 60 μM Compound 85 (red). C) ^1H-^15N HSQC spectrum of 60 μM ^15N-labeled GAS41 YEATS domain in presence of 30 μM Compound 223 (red).
(§2) The signal was further decreased at highest compound concentrations, and indicates saturation of YEATS domain via independent inhibitor molecules (Hook effect).

The target in assay [8] is T4, GAS41 YEATS domain (Homo sapiens, UniProt O95619).
T4 construct: 500 nM his6-Gas41(13-158) and 250 nM avi-Gas41-YEATS were incubated; His-tagged and biotin-labeled Avi-tagged GAS41 YEATS domain constructs
Description: AlphaScreen dimerization assay with his6-Gas41(13-158) and avi-Gas41-YEATS. Format: binding. As to conditions: titration of his6-Gas41(13-158) and avi-Gas41-YEATS; Hook effect at highest concentrations. As for the experimental part: An AlphaScreen assay based on His-tagged and biotin-labeled Avi-tagged GAS41 YEATS domain constructs was developed. For dimerization experiments, 500 nM his6-Gas41(13-158) and 250 nM avi-Gas41-YEATS were incubated in 50 mM HEPES pH 7.5, 100 mM NaCl, 1 mM TCEP, 0.05% BSA, 0.01% Tween-20 in a 96-well ½-Area AlphaPlate incubated for 30 minutes. Compounds 221 and 223 were added to a final concentration of 250 nM at 1% DMSO. Nickel Chelate Acceptor AlphaScreen beads were added to a final concentration of 10 μg/mL and incubated for 1 hour. Streptavidin Donor AlphaScreen beads were added to a final concentration of 10 μg/mL and incubated for 2 hours. For competition experiments with the dimeric complex, 500 nM his-Gas41(13-158) and 250 nM avi-Gas41-YEATS were incubated in assay buffer with 250 nM dimeric inhibitor for 30 minutes before the addition of monomeric competitor. AlphaScreen beads were added as in previous experiments. Alpha signal was measured on a Pherastar plate reader.
as §2

Setting [9] is: AlphaScreen assay, bin Less than 500 nM, read-out: GAS41 YEATS inhibitor IC50.

T1 sequence (O95619 whole entry): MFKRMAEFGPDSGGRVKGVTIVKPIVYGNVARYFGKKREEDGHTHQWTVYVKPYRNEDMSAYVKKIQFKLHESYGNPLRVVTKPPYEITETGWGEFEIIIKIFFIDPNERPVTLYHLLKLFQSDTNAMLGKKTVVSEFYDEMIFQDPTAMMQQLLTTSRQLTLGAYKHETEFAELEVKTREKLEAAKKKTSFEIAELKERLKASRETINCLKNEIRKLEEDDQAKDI
T3 sequence (O95619 15-158 limits assumed): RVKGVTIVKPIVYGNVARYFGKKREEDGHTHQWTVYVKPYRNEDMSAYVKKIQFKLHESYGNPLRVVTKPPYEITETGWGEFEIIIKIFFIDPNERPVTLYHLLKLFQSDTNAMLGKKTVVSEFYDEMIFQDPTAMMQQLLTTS
T4 sequence (O95619 13-158 limits assumed): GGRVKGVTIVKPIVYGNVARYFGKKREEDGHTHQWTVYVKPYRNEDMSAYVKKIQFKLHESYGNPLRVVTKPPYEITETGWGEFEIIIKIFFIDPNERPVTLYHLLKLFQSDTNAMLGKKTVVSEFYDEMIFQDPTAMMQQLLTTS
T4 sequence (O95619 15-158 limits assumed): as the sequence (O95619 15-158 limits assumed) above
T2 sequence (O95619 whole entry): as the sequence (O95619 whole entry) above

On to `O=C(Nc1ccc(C(=O)N2CC(c3nccs3)C2)s1)[C@@H]1C[C@@H](OCc2ccc(CO[C@H]3CN[C@H](C(=O)Nc4ccc(C(=O)N5CC(c6nccs6)C5)s4)C3)cc2)CN1` [Compound 222], for which the IC50 in assay [1] (setting [9]) is less than 500 nM. Consider `O=C(Nc1ccc(C(=O)N2CC(c3ncc(-c4cccc(CNCc5cccc(-c6cnc(C7CN(C(=O)c8ccc(NC(=O)[C@@H]9CCCN9)s8)C7)s6)c5)c4)s3)C2)s1)C1CCCN1` (stereo partly shown) [Compound 211], for which the IC50 in assay [1] (setting [9]) is less than 500 nM. As for `O=C(Nc1ccc(C(=O)N2CC(c3ncc(-c4cccc(COCc5cccc(-c6cnc(C7CN(C(=O)c8ccc(NC(=O)[C@@H]9CCCN9)s8)C7)s6)c5)c4)s3)C2)s1)C1CCCN1` (stereo partly shown) [Compound 210], the IC50 in assay [1] (setting [9]) was less than 500 nM. As to `CC(C)(C)c1ccc(C(=O)N2CCCC2)s1` [Compound 134, (5-(tert-butyl)thiophen-2-yl)(pyrrolidin-1-yl)methanone], the half-inhibitory concentration (IC50) in assay [1] (AlphaScreen, 100 nM MOCR-his6-Gas41, 25 nM H3K23crK27cr-biotin, read-out: IC50) is 73000 nM. On to `CN(Cc1cccc(-c2cnc(C3CN(C(=O)c4ccc(NC(=O)C5CCCN5)s4)C3)s2)c1)Cc1cccc(-c2cnc(C3CN(C(=O)c4ccc(NC(=O)[C@@H]5CCCN5)s4)C3)s2)c1` (stereo partly shown) [Compound 212], for which, in assay [1] (setting [9]), the IC50 is less than 500 nM.

Take `O=C(Nc1ccc(C(=O)N2CC(c3nc4ccccc4s3)C2)s1)[C@@H]1C[C@@H](OCCCCO[C@H]2CN[C@H](C(=O)Nc3ccc(C(=O)N4CC(c5nc6ccccc6s5)C4)s3)C2)CN1` [Compound 221]: the GI50 in assay [2] is roughly 6000 nM; in assay [6] (NCI-H1299, 96 h, H1299 cells treated for 4 days) it was roughly 3000 nM; in assay [6] (NCI-H1299, 336 h, H1299 cells, day 14) it was roughly 6000 nM. In addition, the effect on growth entry in assay [3] is given as “no effect”. For the same compound, the IC50 in assay [1] (setting [9]) is less than 500 nM; in assay [5] it was 6000 nM. Further, the inhibition at 12 µM in assay [4] was roughly 40%. As for `CC(=O)NCCCCCCN(Cc1cccc(-c2cnc(C3CN(C(=O)c4ccc(NC(=O)C5CCCN5)s4)C3)s2)c1)Cc1cccc(-c2cnc(C3CN(C(=O)c4ccc(NC(=O)[C@@H]5CCCN5)s4)C3)s2)c1` (stereo partly shown) [Compound 213], the IC50 in assay [1] (setting [9]) is less than 500 nM. On to `O=C(Nc1ccc(C(=O)N2CC(c3nccs3)C2)s1)[C@@H]1C[C@@H](OCCCCCCO[C@H]2CN[C@H](C(=O)Nc3ccc(C(=O)N4CC(c5nccs5)C4)s3)C2)CN1` [Compound 223, (2S,2′S,4R,4′R)-4,4′-(hexane-1,6-diylbis(oxy))bis(N-(5-(3-(thiazol-2-yl)azetidine-1-carbonyl)thiophen-2-yl)pyrrolidine-2-carboxamide)], for which, in assay [1] (setting [9]), the IC50 is less than 500 nM. In assay [7], the “broadening of NMR signals (formation of a larger dimeric complex)” value is “induces very substantial broadening of signals”. The “luminescence signal reflecting formation of the dimeric complex” value in assay [8] was “increase of luminescence signal”. With `O=C(Nc1ccc(C(=O)N2CC(c3nc4ccccc4s3)C2)s1)[C@@H]1C[C@@H](OCCCCCCO[C@H]2CN[C@H](C(=O)Nc3ccc(C(=O)N4CC(c5nc6ccccc6s5)C4)s3)C2)CN1` [Compound 218], in assay [1] (setting [9]), the IC50 was less than 500 nM. With `O=C(Nc1ccc(C(=O)N2CC(c3nc4ccccc4s3)C2)s1)[C@@H]1C[C@@H](OCCCCCCCCO[C@H]2CN[C@H](C(=O)Nc3ccc(C(=O)N4CC(c5nc6ccccc6s5)C4)s3)C2)CN1` [Compound 219], in assay [1] (setting [9]), the IC50 was less than 500 nM. For the compound `CN(C(=O)C1C[C@@H](OCCCCCCO[C@H]2CN[C@H](C(=O)N(C)c3ccc(C(=O)N4CC(c5nccs5)C4)s3)C2)CN1)c1ccc(C(=O)N2CC(c3nccs3)C2)s1` (stereo partly shown) [Compound 217], the IC50 in assay [1] (setting [9]) was less than 500 nM.

As for `O=C(Nc1ccc(C(=O)N2CC(c3nc4ccccc4s3)C2)s1)[C@@H]1CCCN1` [Compound 88], the “dose dependent growth inhibition” value in assay [6] (H1299 cells treated for 4 days) was “Only the dimer Compound 221 induces dose dependent growth inhibition”.

Turning to `O=C(Nc1ccc(C(=O)N2CC(c3nccs3)C2)s1)[C@@H]1C[C@@H](OCCCCCCCCO[C@H]2CN[C@H](C(=O)Nc3ccc(C(=O)N4CC(c5nccs5)C4)s3)C2)CN1` [Compound 220], the IC50 in assay [1] (setting [9]) was less than 500 nM. Regarding `O=C(Nc1ccc(C(=O)N2CC(c3nccs3)C2)s1)[C@@H]1CCCN1` [Compound 85, (S)—N-(5-(3-(thiazol-2-yl)azetidine-1-carbonyl)thiophen-2-yl)pyrrolidine-2-carboxamide], in assay [7], the “broadening of NMR signals (formation of a larger dimeric complex)” value was “not monomeric Compound 85”.
